The text below walks through data of patent publication US20130252935A1, “Monobactams” (PFIZER INC., priority 2010, published 2013).

Values after ≈ are worked out from the molar mass of the structure shown.

Common to all, as to assay type: cell-based
For assay [1], the system named is Pseudomonas aeruginosa UC-12120. The experiment in a line: minimum inhibitory concentration (MIC) testing according to CLSI guidelines, Pseudomonas aeruginosa. The conditions noted are these: Pseudomonas aeruginosa, UC12120; UC-12120, wild-type, labeled as 1091-05; overnight incubation; lower of duplicate values; read-out: AB-MBT: Pseudomonas aeruginosa 1091-05: MIC (MstRcn). In short, it runs like this: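 Broth dilution MIC per CLSI guidelines against wild-type P. aeruginosa UC-12120 (1091-05), using 2-fold drug dilutions and overnight incubation with visual reading of lowest growth-inhibiting concentration. Tested in duplicate; lower value reported when within 2-fold, with control organisms and reference compounds for quality control.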

Assay [2] has as its system Klebsiella pneumoniae 1000-02. The experiment in a line: minimum inhibitory concentration (MIC) testing according to CLSI guidelines, Klebsiella pneumoniae. The conditions noted are these: Klebsiella pneumoniae; ciprofloxacin-resistant, ESBL-expressing clinical isolate 1000-02; overnight incubation; lower of duplicate values; read-out: AB-MBT: Klebsiella pneumoniae 1000-02: MIC (MstRcnt). In short, it runs like this:
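MIC by CLSI broth dilution with 2-fold concentration steps and overnight incubation; lowest concentration visibly inhibiting growth versus drug-free control. Ciprofloxacin-resistant, ESBL-expressing clinical isolate 1000-02. Run in duplicate, lower value reported when within 2-fold, with QC organisms and reference compounds per run.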

The subject of assay [3] is Acinetobacter baumannii/haemolyticus AB-3167. The experiment in a line: minimum inhibitory concentration (MIC) testing according to CLSI guidelines, Acinetobacter. To be noted: Acinetobacter baumannii; multidrug-resistant clinical isolate AB-3167; overnight incubation; lower of duplicate values; read-out: AB-MBT: Acinetobacter baumanii AB-3167: MIC (MstRcnt). In short, it runs like this: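 Broth dilution MIC per CLSI M7-A8/M100-S20 against multidrug-resistant clinical isolate AB-3167, using 2-fold drug dilutions and overnight incubation; MIC is the lowest concentration without visible growth. Duplicates within 2-fold reported as the lower value, with control strains and reference compounds in range.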

`Nc1nc(/C(=N/OC2(C(=O)O)CCC2)C(=O)N[C@@H]2C(=O)N(S(=O)(=O)O)[C@@H]2CNC(=O)c2ccc(CNC(=O)c3cc(=O)c(O)cn3O)cc2)cs1` [Example 62, 1-({[(1Z)-1-(2-amino-1,3-thiazol-4-yl)-2-{[(2R,3S)-2-({[4-({[(1,5-dihydroxy-4-oxo-1,4-dihydropyridin-2-yl)carbonyl]amino}methyl)benzoyl]amino}methyl)-4-oxo-1-sulfoazetidin-3-yl]amino}-2-oxoethylidene]amino}oxy)cyclobutanecarboxylic acid]: the figures for the MIC in assay [1], in assay [2] and in assay [3] were 2 µg/mL (≈ 2.67 µM), 1 µg/mL (≈ 1.34 µM) and 0.5 µg/mL (≈ 0.668 µM), respectively.
Regarding `N#C/N=C(\NCc1cc(=O)c(O)cn1O)NC[C@@H]1[C@H](NC(=O)/C(=N\OC2(C(=O)O)CCC2)c2csc(N)n2)C(=O)N1S(=O)(=O)O` [Example 63, 1-({[(1Z)-1-(2-amino-1,3-thiazol-4-yl)-2-{[(2R,3S)-2-({[(Z)-(cyanoimino){[(1,5-dihydroxy-4-oxo-1,4-dihydropyridin-2-yl)methyl]amino}methyl]amino}methyl)-4-oxo-1-sulfoazetidin-3-yl]amino}-2-oxoethylidene]amino}oxy)cyclobutanecarboxylic acid], the MIC (as a rule, the least concentration at which growth counts as inhibited) in assay [1] worked out at 0.25 µg/mL (≈ 0.374 µM); in assay [2], 1 µg/mL (≈ 1.5 µM); in assay [3], 0.5 µg/mL (≈ 0.748 µM).
Consider `Nc1nc(/C(=N/OC2(C(=O)O)CCC2)C(=O)N[C@@H]2C(=O)N(S(=O)(=O)O)[C@@H]2CNC(=O)c2cccc(C(=O)NCc3cc(=O)c(O)cn3O)c2)cs1` [Example 64, 1-({[(1Z)-1-(2-amino-1,3-thiazol-4-yl)-2-{[(2R,3S)-2-{[(3-{[(1,5-dihydroxy-4-oxo-1,4-dihydropyridin-2-yl)methyl]carbamoyl}benzoyl)amino]methyl}-4-oxo-1-sulfoazetidin-3-yl]amino}-2-oxoethylidene]amino}oxy)cyclobutanecarboxylic acid], for which the values for the MIC in assay [1], in assay [2] and in assay [3] were 1 µg/mL (≈ 1.34 µM), 0.25 µg/mL (≈ 0.334 µM) and 0.5 µg/mL (≈ 0.668 µM), respectively.
On to `Nc1nc(/C(=N/OC2(C(=O)O)CCC2)C(=O)N[C@@H]2C(=O)N(S(=O)(=O)O)[C@@H]2CNC(=O)C(=O)NCc2cc(=O)c(O)cn2O)cs1` [Example 65, 1-({[(1Z)-1-(2-amino-1,3-thiazol-4-yl)-2-{[(2R,3S)-2-({[{[(1,5-dihydroxy-4-oxo-1,4-dihydropyridin-2-yl)methyl]amino}(oxo)acetyl]amino}methyl)-4-oxo-1-sulfoazetidin-3-yl]amino}-2-oxoethylidene]amino}oxy)cyclobutanecarboxylic acid], for which the MIC in assay [1] amounted to 0.06 µg/mL (≈ 0.0892 µM); in assay [2] it was 0.25 µg/mL (≈ 0.372 µM); in assay [3], 0.125 µg/mL (≈ 0.186 µM).
As to `Nc1nc(/C(=N/OC2(C(=O)O)CCCC2)C(=O)N[C@@H]2C(=O)N(S(=O)(=O)O)[C@@H]2CNC(=O)c2cc(=O)c(O)cn2O)cs1` [Example 66, 1-({[(1Z)-1-(2-amino-1,3-thiazol-4-yl)-2-{[(2R,3S)-2-({[(1,5-dihydroxy-4-oxo-1,4-dihydropyridin-2-yl)carbonyl]amino}methyl)-4-oxo-1-sulfoazetidin-3-yl]amino}-2-oxoethylidene]amino}oxy)cyclopentanecarboxylic acid], the MIC in assay [1] worked out at 0.5 µg/mL (≈ 0.794 µM); in assay [2], 0.125 µg/mL (≈ 0.199 µM); in assay [3], 0.5 µg/mL (≈ 0.794 µM).
With `CC(C)(O/N=C(\C(=O)N[C@@H]1C(=O)N(S(=O)(=O)O)[C@@H]1CNC(=O)c1cccc(NC(=O)c2cc(=O)c(O)cn2O)c1)c1csc(N)n1)C(=O)O` [Example 67, 2-({[(1Z)-1-(2-amino-1,3-thiazol-4-yl)-2-{[(2R,3S)-2-{[(3-{[(1,5-dihydroxy-4-oxo-1,4-dihydropyridin-2-yl)carbonyl]amino}benzoyl)amino]methyl}-4-oxo-1-sulfoazetidin-3-yl]amino}-2-oxoethylidene]amino}oxy)-2-methylpropanoic acid], the MIC stood at 4 µg/mL (≈ 5.54 µM) in assay [1], 4 µg/mL (≈ 5.54 µM) in assay [2] and 2 µg/mL (≈ 2.77 µM) in assay [3].
